Measured values published in ChEMBL document CHEMBL3817813, “Exploiting the co-reliance of tumours upon transport of amino acids and lactate: Gln and Tyr conjugates of MCT1 inhibitors” (Medchemcomm, 2016).
The source made the active and inactive calls. No cut-off for these calls is given here.

Key:
MDA-MB-231 = assay: Cytotoxicity against MCT1-deficient human MDA-MB-231 cells at 10 uM measured after 96 hrs by MTT assay; format: cell-based; details: mda-mb-231, 96 h
[1] = molecular target: T1, Monocarboxylate transporter 1 (Homo sapiens) (UniProt P53985); assay: Activity at MCT1 (unknown origin) using [14C]lactate by cell based lactate flux assay
T1 sequence (whole entry): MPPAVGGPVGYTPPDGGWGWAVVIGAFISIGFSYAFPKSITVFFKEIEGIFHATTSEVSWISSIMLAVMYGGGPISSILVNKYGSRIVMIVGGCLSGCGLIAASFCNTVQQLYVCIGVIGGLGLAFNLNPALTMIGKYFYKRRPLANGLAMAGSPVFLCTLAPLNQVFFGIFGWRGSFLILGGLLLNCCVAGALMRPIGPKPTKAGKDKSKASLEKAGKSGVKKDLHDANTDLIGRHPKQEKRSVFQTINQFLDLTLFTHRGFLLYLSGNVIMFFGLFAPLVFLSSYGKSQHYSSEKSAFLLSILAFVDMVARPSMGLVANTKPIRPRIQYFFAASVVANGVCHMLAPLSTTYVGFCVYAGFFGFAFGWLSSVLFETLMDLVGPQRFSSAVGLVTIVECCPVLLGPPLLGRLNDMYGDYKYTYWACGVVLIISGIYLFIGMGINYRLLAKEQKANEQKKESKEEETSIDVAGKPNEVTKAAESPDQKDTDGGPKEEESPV

[2] = Drug uptake in Sprague-Dawley rat plasma at 20 mg/kg, ip measured after 6 hrs by LC-MS/MS analysis; format: ADME, organism-based
[3] = Drug uptake in Sprague-Dawley rat blood at 20 mg/kg, ip measured after 6 hrs by LC-MS/MS analysis; format: ADME, organism-based; details: whole blood, read-out: Drug uptake
[4] = Drug uptake in Sprague-Dawley rat brain at 20 mg/kg, ip measured after 6 hrs by LC-MS/MS analysis; format: ADME, organism-based; details: read-out: Drug uptake
[5] = Drug uptake in Sprague-Dawley rat liver at 20 mg/kg, ip measured after 6 hrs by LC-MS/MS analysis; format: ADME, organism-based; details: read-out: Drug uptake
[6] = Drug uptake in Sprague-Dawley rat spleen at 20 mg/kg, ip measured after 6 hrs by LC-MS/MS analysis; format: ADME, organism-based; details: read-out: Drug uptake
[7] = Drug uptake in Sprague-Dawley rat kidney at 20 mg/kg, ip measured after 6 hrs by LC-MS/MS analysis; format: ADME, organism-based; details: read-out: Drug uptake
[8] = Drug uptake in Sprague-Dawley rat lung at 20 mg/kg, ip measured after 6 hrs by LC-MS/MS analysis; format: ADME, organism-based; details: read-out: Drug uptake
[9] = Drug uptake in Sprague-Dawley rat plasma at 20 mg/kg, ip measured after 24 hrs by LC-MS/MS analysis; format: ADME, organism-based
[10] = Drug uptake in Sprague-Dawley rat blood at 20 mg/kg, ip measured after 24 hrs by LC-MS/MS analysis; format: ADME, organism-based; details: whole blood, read-out: Drug uptake
[11] = Drug uptake in Sprague-Dawley rat brain at 20 mg/kg, ip measured after 24 hrs by LC-MS/MS analysis; format: ADME, organism-based; details: read-out: Drug uptake
[12] = Drug uptake in Sprague-Dawley rat liver at 20 mg/kg, ip measured after 24 hrs by LC-MS/MS analysis; format: ADME, organism-based; details: read-out: Drug uptake
[13] = Drug uptake in Sprague-Dawley rat spleen at 20 mg/kg, ip measured after 24 hrs by LC-MS/MS analysis; format: ADME, organism-based; details: read-out: Drug uptake
[14] = Drug uptake in Sprague-Dawley rat kidney at 20 mg/kg, ip measured after 24 hrs by LC-MS/MS analysis; format: ADME, organism-based; details: read-out: Drug uptake
[15] = Drug uptake in Sprague-Dawley rat lung at 20 mg/kg, ip measured after 24 hrs by LC-MS/MS analysis; format: ADME, organism-based; details: read-out: Drug uptake
[16] = Drug uptake in Sprague-Dawley rat spleen at 20 mg/kg, ip measured after 7 days by LC-MS/MS analysis; format: ADME, organism-based; details: read-out: Drug uptake
[17] = Drug uptake in Sprague-Dawley rat plasma at 20 mg/kg, ip measured after 7 days by LC-MS/MS analysis; format: ADME, organism-based
[18] = Drug uptake in Sprague-Dawley rat blood at 20 mg/kg, ip measured after 7 days by LC-MS/MS analysis; format: ADME, organism-based; details: whole blood, read-out: Drug uptake
[19] = Drug uptake in Sprague-Dawley rat brain at 20 mg/kg, ip measured after 7 days by LC-MS/MS analysis; format: ADME, organism-based; details: read-out: Drug uptake
[20] = Drug uptake in Sprague-Dawley rat liver at 20 mg/kg, ip measured after 7 days by LC-MS/MS analysis; format: ADME, organism-based; details: read-out: Drug uptake
[21] = Drug uptake in Sprague-Dawley rat kidney at 20 mg/kg, ip measured after 7 days by LC-MS/MS analysis; format: ADME, organism-based; details: read-out: Drug uptake
[22] = Drug uptake in Sprague-Dawley rat lung at 20 mg/kg, ip measured after 7 days by LC-MS/MS analysis; format: ADME, organism-based; details: read-out: Drug uptake
[23] = Drug uptake in NOD/SCID mouse tumor measured after 24 hrs; format: ADME, Neoplasm; details: read-out: Drug uptake

For `CC(C)Cc1nn(C)c(=O)c2c(SCCCO)n(Cc3cnc(Cl)c4ccccc34)cc12`, which Activity (MDA-MB-231) is on record?
Its Activity is “Non-toxic”.

Which Activity (MDA-MB-231) does the source give for `CC(C)Cc1nn(C)c(=O)c2c(SCCCO)n(Cc3ccc(Br)c4ccccc34)cc12` here?
The Activity was “Non-toxic”.

With `CC(C)Cc1nn(C)c(=O)c2c(SCCCO)n(Cc3cc(Cl)nc4ccccc34)cc12` as the compound, how does the Activity (MDA-MB-231) read?
Its Activity is “Non-toxic”.

Which Activity (MDA-MB-231) does the source give for `CC(C)Cc1nn(C)c(=O)c2c(SCCCO)n(Cc3ccnc(NCCCCCN)c3)cc12` here?
Its Activity is “Non-toxic”.

For `CC(C)Cc1nn(C)c(=O)c2c(SCCCO)n(Cc3cc(NCCCCCN)nc4ccccc34)cc12`, which Activity (MDA-MB-231) is on record?
The Activity was “Non-toxic”.

For `CC(C)Cc1nn(C)c(=O)c2c(SCCCO)n(Cc3cnc(NCCCCCNC(=O)[C@@H](N)CCC(N)=O)c4ccccc34)cc12`, which Activity [1] is on record?
Its Activity is “Active”.

And the Activity (MDA-MB-231)?
Its Activity is “Non-toxic”.

For `CC(C)Cc1nn(C)c(=O)c2c(SCCCO)n(Cc3ccnc(NCCCCCNC(=O)[C@@H](N)CCC(N)=O)c3)cc12`, which Activity (MDA-MB-231) is on record?
Its Activity is “Non-toxic”.

Which Activity (MDA-MB-231) does the source give for `CC(C)Cc1nn(C)c(=O)c2c(SCCCO)n(Cc3ccc(NCCCCCN)nc3)cc12` here?
The Activity was “Non-toxic”.

With `CC(C)Cc1nn(C)c(=O)c2c(SCCCO)n(Cc3ccc(C#CCCCNC(=O)[C@@H](N)CCC(N)=O)c4ccccc34)cc12` as the compound, how does the Activity [1] read?
The Activity was “Active”.

What about the Activity (MDA-MB-231) of the same compound?
Its Activity is “Non-toxic”.

With `CC(C)Cc1nn(C)c(=O)c2c(SCCCO)n(Cc3cnc(NCCCCCN)c4ccccc34)cc12` as the compound, how does the Activity (MDA-MB-231) read?
Its Activity is “Non-toxic”.

Which Activity (MDA-MB-231) does the source give for `CC(C)Cc1nn(C)c(=O)c2c(SCCCO)n(Cc3cccc4ccccc34)cc12` here?
Its Activity is “Non-toxic”.

What about the concentration at 6 h [2] of the same compound?
The concentration at 6 h was 0.027 µM.

And the concentration at 6 h [3]?
Its concentration at 6 h is 0.14 µM.

And the concentration at 6 h [4]?
Its concentration at 6 h is 0.19 µM.

What about the concentration at 6 h [5] of the same compound?
Its concentration at 6 h is 0.063 µM.

And the concentration at 6 h [6]?
The concentration at 6 h was 0.74 µM.

What about the concentration at 6 h [7] of the same compound?
The concentration at 6 h was 0.12 µM.

What about the concentration at 6 h [8] of the same compound?
The concentration at 6 h was 0.061 µM.

What about the concentration at 24 h [9] of the same compound?
Its concentration at 24 h is 0.004 µM.

And the concentration at 24 h [10]?
The concentration at 24 h was 0.063 µM.

And the concentration at 24 h [11]?
The concentration at 24 h was 0.27 µM.

And the concentration at 24 h [12]?
The concentration at 24 h was 0.06 µM.

What about the concentration at 24 h [13] of the same compound?
Its concentration at 24 h is 0.42 µM.

What about the concentration at 24 h [14] of the same compound?
Its concentration at 24 h is 0.16 µM.

What about the concentration at 24 h [15] of the same compound?
The concentration at 24 h was 0.074 µM.

And the concentration at 168 h [16]?
The concentration at 168 h was 0.043 µM.

For `CC(C)Cc1nn(C)c(=O)c2c(SCCCO)n(Cc3ccnc(Cl)c3)cc12`, which Activity (MDA-MB-231) is on record?
The Activity was “Non-toxic”.

Which Activity (MDA-MB-231) does the source give for `CC(C)Cc1nn(C)c(=O)c2c(SCCCO)n(Cc3ccc(NCCCCCNC(=O)[C@@H](N)CCC(N)=O)nc3)cc12` here?
Its Activity is “Non-toxic”.

With `CC(C)Cc1nn(C)c(=O)c2c(SCCCO)n(Cc3cc(NCCCCCNC(=O)[C@@H](N)CCC(N)=O)nc4ccccc34)cc12` as the compound, how does the Activity (MDA-MB-231) read?
The Activity was “Non-toxic”.

With `CC(C)Cc1nn(C)c(=O)c2c(SCCCO)n(Cc3ccc(Cl)nc3)cc12` as the compound, how does the Activity (MDA-MB-231) read?
The Activity was “Non-toxic”.

For `CC(C)Cc1nn(C)c(=O)c2c(SCCCO)n(Cc3ccc(C#CCCCOc4ccc(C[C@H](N)C(=O)O)cc4)c4ccccc34)cc12`, which Activity [1] is on record?
The Activity was “Active”.

And the Activity (MDA-MB-231)?
The Activity was “Non-toxic”.

What about the concentration at 6 h [2] of the same compound?
Its concentration at 6 h is 3.27 µM.

And the concentration at 6 h [3]?
The concentration at 6 h was 4.33 µM.

And the concentration at 6 h [4]?
The concentration at 6 h was 0.11 µM.

And the concentration at 6 h [5]?
The concentration at 6 h was 2.5 µM.

And the concentration at 6 h [6]?
Its concentration at 6 h is 2.26 µM.

What about the concentration at 6 h [7] of the same compound?
The concentration at 6 h was 1.62 µM.

What about the concentration at 6 h [8] of the same compound?
The concentration at 6 h was 1.54 µM.

And the concentration at 24 h [9]?
Its concentration at 24 h is 0.012 µM.

And the concentration at 24 h [10]?
The concentration at 24 h was 0.076 µM.

What about the concentration at 24 h [11] of the same compound?
The concentration at 24 h was 0.062 µM.

And the concentration at 24 h [12]?
The concentration at 24 h was 0.94 µM.

What about the concentration at 24 h [13] of the same compound?
Its concentration at 24 h is 1.06 µM.

And the concentration at 24 h [14]?
Its concentration at 24 h is 0.96 µM.

And the concentration at 24 h [15]?
Its concentration at 24 h is 0.52 µM.

And the concentration at 168 h [17]?
The concentration at 168 h was 0.004 µM.

What about the concentration at 168 h [18] of the same compound?
Its concentration at 168 h is 0.041 µM.

And the concentration at 168 h [19]?
The concentration at 168 h was 0.043 µM.

What about the concentration at 168 h [20] of the same compound?
The concentration at 168 h was 0.098 µM.

And the concentration at 168 h [16]?
The concentration at 168 h was 0.19 µM.

What about the concentration at 168 h [21] of the same compound?
Its concentration at 168 h is 0.21 µM.

What about the concentration at 168 h [22] of the same compound?
Its concentration at 168 h is 0.11 µM.

And the concentration at 24 h [23]?
The concentration at 24 h was 0.3 µM.
